The values that follow are results of earlier work, collected in patent publication US20170173097A1, “COMPOSITIONS FOR ENHANCING DETOXIFICATION AND USES THEREOF” (Specialty Nutrition Group, Inc., priority 2014, published 2017).

Read-outs that look alike come from different tables or passages of the source.

The data set relates to beta-glucuronidase.

With `O=C([O-])[C@@H](O)[C@@H](O)[C@H](O)[C@@H](O)C(=O)[O-].[Ca+2]` [calcium D-glucarate], the inhibition of beta-glucuronidase is 57% (in the blood), 39% (in the intestines), 44% (in the liver) and 37% (in the lungs).
